# Measured values taken from PubChem BioAssay AID330 (DTP/NCI, 2004).
# Several values for one entry are separate records, joined by “and”; a condition that tells them apart may be missing. Equal values may be shown once. Inconclusive results and toxic doses are left out.
# System: P388 leukemia ip, CD2F1 mice, survival T/C
# Test: NCI In Vivo Anticancer Drug Screen. Data for tumor model P388 Leukemia (intraperitoneal) in CD2F1 (CDF1) mice
# Details: endpoint: median survival time, higher = longer survival
# How it was run: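 Mice carrying the transplanted tumor received test compound or vehicle. Survival was recorded in each group, and the value is the treated-group measurement divided by that of the vehicle-treated control group.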
# [1] = dose: 12.5 mg/kg/injection, schedule: Q01DX009 (ip), vehicle: saline with Tween-80
# [2] = dose: 25.0 mg/kg/injection, schedule: Q01DX009 (ip), vehicle: saline with Tween-80
# [3] = dose: 50.0 mg/kg/injection, schedule: Q01DX009 (ip), vehicle: saline with Tween-80
# [4] = dose: 200.0 mg/kg/injection, schedule: Q01DX001 (ip), vehicle: saline with Tween-80
# [5] = dose: 60.0 mg/kg/injection, schedule: Q01DX005 (ip), vehicle: Klucel (hydroxypropylcellulose) (HPC)
# [6] = dose: 120.0 mg/kg/injection, schedule: Q01DX005 (ip), vehicle: Klucel (hydroxypropylcellulose) (HPC)
# [7] = dose: 60.0 mg/kg/injection, schedule: Q01DX005 (ip), vehicle: saline
# [8] = dose: 120.0 mg/kg/injection, schedule: Q01DX005 (ip), vehicle: saline
# [9] = dose: 240.0 mg/kg/injection, schedule: Q01DX005 (ip), vehicle: saline
# [10] = dose: 12.5 mg/kg/injection, schedule: Q01DX005 (ip), vehicle: saline
# [11] = dose: 25.0 mg/kg/injection, schedule: Q01DX005 (ip), vehicle: saline
# [12] = dose: 100.0 mg/kg/injection, schedule: Q01DX009 (ip), vehicle: saline with Tween-80
# [13] = dose: 200.0 mg/kg/injection, schedule: Q01DX009 (ip), vehicle: saline with Tween-80
compound,measurement,setting,value
O=C(O)C1CC(=O)N(Cc2ccccc2)C1 (configuration not stated),T/C,"dose: 100.0 mg/kg/injection, schedule: Q04DX003 (ip), vehicle: saline with Tween-80",95 % of control
same,T/C,"dose: 200.0 mg/kg/injection, schedule: Q04DX003 (ip), vehicle: saline with Tween-80",100 % of control
same,T/C,"dose: 400.0 mg/kg/injection, schedule: Q04DX003 (ip), vehicle: saline with Tween-80",100 % of control
Clc1c2ccccc2c(Cl)c2ccccc12,T/C,"dose: 100.0 mg/kg/injection, schedule: Q04DX002 (ip), vehicle: saline with Tween-80",97 % of control
same,T/C,"dose: 200.0 mg/kg/injection, schedule: Q04DX002 (ip), vehicle: saline with Tween-80",103 % of control
same,T/C,"dose: 400.0 mg/kg/injection, schedule: Q04DX002 (ip), vehicle: saline with Tween-80",96 % of control
C/C(=N/NC(N)=S)C1CCC2C3CCC4CCCCC4(C)C3CC(O)C12C (configuration not stated),T/C,[1],101 % of control
same,T/C,[2],93 % of control
same,T/C,[3],92 % of control
COc1cc2c(cc1C1CCCCCc3c1n(C)c1ccccc31)C1CCCCC1N2C (configuration not stated),T/C,"dose: 12.5 mg/kg/injection, schedule: Q01DX001 (ip), vehicle: distilled water + Tween-80",108 % of control
same,T/C,"dose: 25.0 mg/kg/injection, schedule: Q01DX001 (ip), vehicle: distilled water + Tween-80",116 % of control
same,T/C,"dose: 50.0 mg/kg/injection, schedule: Q01DX001 (ip), vehicle: distilled water + Tween-80",101 % of control
same,T/C,"dose: 100.0 mg/kg/injection, schedule: Q01DX001 (ip), vehicle: distilled water + Tween-80",111 % of control
same,T/C,"dose: 200.0 mg/kg/injection, schedule: Q01DX001 (ip), vehicle: distilled water + Tween-80",111 % of control
CCCn1c(Cl)c(/C=N\Nc2ccc([N+](=O)[O-])cc2)c2ccccc21,T/C,"dose: 100.0 mg/kg/injection, schedule: Q01DX001 (ip), vehicle: saline with Tween-80",103 % of control
same,T/C,[4],95 % of control
same,T/C,"dose: 400.0 mg/kg/injection, schedule: Q01DX001 (ip), vehicle: saline with Tween-80",95 % of control
CC(=O)CN1CCSC1=N,T/C,"dose: 100.0 mg/kg/injection, schedule: Q01DX001 (ip), vehicle: saline",97 % of control
CNC(=O)NC(c1ccc2c(c1)OCO2)c1cc2c(cc1O)OCO2 (configuration not stated),T/C,[5],87 % of control
same,T/C,[6],87 % of control
CC1=NOCC(=O)N1,T/C,"dose: 50.0 mg/kg/injection, schedule: Q01DX005 (ip), vehicle: distilled water + alcohol",106 % of control
same,T/C,"dose: 100.0 mg/kg/injection, schedule: Q01DX005 (ip), vehicle: distilled water + alcohol",102 % of control
same,T/C,"dose: 200.0 mg/kg/injection, schedule: Q01DX005 (ip), vehicle: distilled water + alcohol",105 % of control
O=C1OCN2C(=O)CCC12 (configuration not stated),T/C,[7],109 % of control
same,T/C,[8],97 % of control
same,T/C,[9],86 % of control
C/C=C1\C[C@@H]2C(OC)Nc3cc(O)c(OC)cc3C(=O)N2C1 (some centres not stated),T/C,"dose: 0.01 mg/kg/injection, schedule: Q04DX003 (ip), vehicle: other",97 % of control
same,T/C,"dose: 0.03 mg/kg/injection, schedule: Q04DX003 (ip), vehicle: other",114 % of control
same,T/C,"dose: 0.1 mg/kg/injection, schedule: Q04DX003 (ip), vehicle: other",123 % of control
same,T/C,"dose: 0.13 mg/kg/injection, schedule: Q04DX003 (ip), vehicle: other",160 % of control
same,T/C,"dose: 0.25 mg/kg/injection, schedule: Q04DX003 (ip), vehicle: other",163 % of control
same,T/C,"dose: 0.3 mg/kg/injection, schedule: Q04DX003 (ip), vehicle: other",161 % of control
same,T/C,"dose: 0.5 mg/kg/injection, schedule: Q04DX003 (ip), vehicle: other",168 % of control
same,T/C,"dose: 1.0 mg/kg/injection, schedule: Q04DX003 (ip), vehicle: other",93 % of control
same,T/C,"dose: 1.0 micrograms/kg/injection, schedule: Q01DX009 (ip), vehicle: other",110 % of control
same,T/C,"dose: 3.0 micrograms/kg/injection, schedule: Q01DX009 (ip), vehicle: other",102 % of control
same,T/C,"dose: 10.0 micrograms/kg/injection, schedule: Q01DX009 (ip), vehicle: other",118 % of control
same,T/C,"dose: 100.0 micrograms/kg/injection, schedule: Q01DX009 (ip), vehicle: other",168 % of control
same,T/C,"dose: 300.0 micrograms/kg/injection, schedule: Q01DX009 (ip), vehicle: other",200 % of control
CC[N+](C)(CC)C[Si](C)(C)c1ccccc1,T/C,[10],98 % of control
same,T/C,[11],100 % of control
same,T/C,"dose: 50.0 mg/kg/injection, schedule: Q01DX005 (ip), vehicle: saline",105 % of control and 98 % of control
CSc1nc(SC)c2c(CNC(C)=O)cn(Cc3ccccc3)c2n1,T/C,"dose: 50.0 mg/kg/injection, schedule: Q01DX001 (ip), vehicle: saline with Tween-80",87 % of control
same,T/C,[4],86 % of control and 87 % of control
COC12C=CC(CC1)C1C(=O)C=CC(=O)C12 (configuration not stated),T/C,"dose: 60.0 mg/kg/injection, schedule: Q01DX005 (ip), vehicle: saline with Tween-80",105 % of control
same,T/C,"dose: 120.0 mg/kg/injection, schedule: Q01DX005 (ip), vehicle: saline with Tween-80",105 % of control
same,T/C,"dose: 240.0 mg/kg/injection, schedule: Q01DX005 (ip), vehicle: saline with Tween-80",112 % of control
Nc1cc(N)cc(C(=O)c2ccccc2)c1,T/C,[12],95 % of control
same,T/C,[13],95 % of control
same,T/C,"dose: 400.0 mg/kg/injection, schedule: Q01DX009 (ip), vehicle: saline with Tween-80",90 % of control
Cc1cc(N=Nc2ccncc2C)ccc1N,T/C,"dose: 6.25 mg/kg/injection, schedule: Q01DX009 (ip), vehicle: saline with Tween-80",106 % of control
same,T/C,[1],104 % of control
same,T/C,[2],100 % of control
same,T/C,[3],92 % of control
COc1cc(NCC(O)CN(CC(C)C)C2CCCC2)c2ncccc2c1 (configuration not stated),T/C,[10],100 % of control
same,T/C,[11],99 % of control
C[C@]12CCC[C@@H](O)[C@H]1O2,T/C,"dose: 100.0 mg/kg/injection, schedule: Q04DX003 (ip), vehicle: saline",104 % of control
same,T/C,"dose: 200.0 mg/kg/injection, schedule: Q04DX003 (ip), vehicle: saline",103 % of control
same,T/C,"dose: 400.0 mg/kg/injection, schedule: Q04DX003 (ip), vehicle: saline",109 % of control
CCC(=O)C(=O)CC1CC(c2ccco2)=Nc2ccccc2S1 (configuration not stated),T/C,"dose: 50.0 mg/kg/injection, schedule: Q01DX005 (ip), vehicle: saline with Tween-80",111 % of control
same,T/C,"dose: 100.0 mg/kg/injection, schedule: Q01DX005 (ip), vehicle: saline with Tween-80",113 % of control
same,T/C,"dose: 200.0 mg/kg/injection, schedule: Q01DX005 (ip), vehicle: saline with Tween-80",102 % of control
Oc1[nH]c2ccccc2c1N=NC1=NCCN1,T/C,[7],101 % of control
same,T/C,[8],104 % of control
same,T/C,[9],87 % of control
OC(CCCCl)CC(O)(C(F)(F)F)C(F)(F)F (configuration not stated),T/C,[3],110 % of control
same,T/C,[12],110 % of control
same,T/C,[13],110 % of control
CC(/C=C/c1ccccc1)=N\NC(=O)C(N)=O,T/C,[1],97 % of control
same,T/C,[2],97 % of control
same,T/C,[3],96 % of control
same,T/C,"dose: 50.0 mg/kg/injection, schedule: Q01DX009 (ip), vehicle: saline",100 % of control
same,T/C,"dose: 100.0 mg/kg/injection, schedule: Q01DX009 (ip), vehicle: saline",91 % of control
same,T/C,"dose: 200.0 mg/kg/injection, schedule: Q01DX009 (ip), vehicle: saline",98 % of control
COc1ccc(N(CN2C(=O)CCC2=O)CS(=O)(=O)c2ccc(C)cc2)cc1,T/C,[5],100 % of control
same,T/C,[6],100 % of control
same,T/C,"dose: 240.0 mg/kg/injection, schedule: Q01DX005 (ip), vehicle: Klucel (hydroxypropylcellulose) (HPC)",100 % of control
